Assay results from US8084261B2, “Method for predicting responsiveness to a pharmaceutical therapy for obesity” (priority 2007, dated 2011).

Columns and labels:
TRL V6 = assay: Cross therapeutic target rat study: reduction of circulating TRL V6 concentration after an acute dose (NMR LipoProfile); assay type: in vivo, DIO-LE rats; settings: for Reduction in TRL V6 Response T1-(ie 2 hrs) / Reduction in TRL V6 Response T2-(ie 5 hrs) / Reduction in TRL V6 Response T3-(ie 18 hrs): DIO-LE rats on high fat chow, acute dose as in the Dose column; for Reduction in TRL V6 Response T1-(ie 2 hrs): T1 (ie 2 hrs) post dose; for Reduction in TRL V6 Response T2-(ie 5 hrs): T2 (ie 5 hrs) post dose; for Reduction in TRL V6 Response T3-(ie 18 hrs): T3 (ie 18 hrs) post dose; for reduction of circulating concentration of TRL V6 / time by which TRL V6 plasma concentration returns to baseline / reduction of circulating TRL V6 concentration: SNDRI 3 mg/kg; for time by which TRL V6 plasma concentration returns to baseline: post dose
Procedure: As a typical example, whole blood samples are collected into 2 ml EDTA blood collection tubes, inverted several times to mix well, and placed on ice. The samples are then centrifuged at approximately 3000 rpm for 10-15 minutes at 4° C. Upon completion of centrifugation, the tube is placed on ice and the plasma is drawn off The plasma is place into a polypropylene tube and kept at 4° C. until analysis. Samples may be analyzed at any time up to about 4 days after collection. Samples are analyzed for TRL V6 response, as for example by NMR plasma lipoprotein analysis, as for example, the NMR LipoProfile®, the NMR LipoProfile®-II or the NMR LipoProfile®-III lipoprotein tests provided by LipoScience, Inc. of Raleigh, N.C.
The ability of investigational weight loss pharmaceutical agents to reduce the TRL V6 concentration in rats is shown with three compounds targeting different mechanisms of action including a known potent and selective 5-HT2C receptor agonist, a known potent and selective CB-1 receptor antagonist/inverse agonist, and a potent SNDRI (sibutramine) Each of these compounds are known to induce weight loss in rats and thus the biomarker of reduction in TRL V6 concentration correlates to the investigational weight loss pharmaceutical agents' ability to induce weight loss. Conversely, an opiate antagonist, (naltrexone) which is known to be ineffective in inducing weight loss in rats or in overweight and obese human subjects (Malcolm R et al., Int. J. Obes. 1985; 9(5):347-53), is shown to not reduce the TRL V6 concentration in rats, again correlating the biomarker of reduction in TRL V6 concentration to the investigational weight loss pharmaceutical agents' ability to induce weight loss.
DIO-LE rats maintained on a high fat chow are administered either a vehicle dose or an acute dose of test compound. At specified time points post dose, animals are sacrificed and blood is collected in blood sample tubes containing EDTA and processed essentially as described above. Samples are analyzed by NMR LipoProfile® lipoprotein sub-particle test with report of all particle subtypes (specifically the TRL V6 concentration or particle number).

[1] = tested on: large triglyceride rich lipoprotein subclasses; assay: Human study with sibutramine: TRL response (AUC 5-11 hr) to fat load versus placebo, NMR LipoProfile; assay type: in vivo
Procedure: Note that where TRL V6 response can be equated with the response of a combination of subtypes, it is because the magnitude of the change in signal, which is due to the change of TRL V6 signal, is sufficiently large compared to the base line signal, to be a significant difference (i.e. the signal from TRL V6 in the base line signal dominates the combined signal so that a change in TRL V6 is reliably detected).
A SNDRI (sibutramine) known to be able to induce weight loss in humans is tested to correlate its ability to reduce TRL V6 response plasma concentrations and V-TRL response in humans in an exploratory biomarker study employing a single-blind, crossover design, comparing sibutramine and placebo in hypertriglyceridemic and overweight and obese but otherwise healthy subjects.
Three cohorts containing 6 subjects each, undergo three periods during the study. Subjects are fasted overnight and two fasting blood draws are obtained, followed by breakfast at approximately 07:00 hours. Placebo or sibutramine is administered at approximately 10:00 hours. Blood sampling is begun approximately 1 hr. after the start of breakfast and continues at hourly intervals for 7 hr., and then every 2 hr. for the next 10 hr. A lunch according to Example fat load 2 is served at approximately 12:00 hours (approximately 60 to 65 g of fat). No other food is permitted until 12 hr. post fat load administration. Subjects are released after the last blood sampling for a 4 to 8-day washout period before return for the second testing period of the study. After the washout period, subjects are again fasted overnight. The procedures are then repeated as in the first testing period of the study except that each subject crosses over to receive the alternate treatment, sibutramine or placebo. Blood samples are collected, processed and analyzed essentially as described in Example 1 above.
TRL V6 responses and V-TRL responses are observed during the period from 5 to 11 hr. post fat load. […] In most subjects, the administration of sibutramine reduced the magnitude of the TRL V6 response and V-TRL response compared to their placebo-treated responses. Thus the reduction of the TRL V6 response and V-TRL response induced by the SNDRI correlates with the SNDRI known ability to induce weight loss in humans.

[2] = rats, 2 hr. post dose, 5-HT2C agonist 10 mg/kg, naltrexone 10 mg/kg oral
[3] = rats, 5-HT2C agonist 10 mg/kg, CB-1 antagonist 0.3 mg/kg, naltrexone 10 mg/kg oral
[4] = AUC 5-11 hr. time points from lipid load
[5] = AUC 5-11 hr. time points from lipid load, chylomicrons
[6] = versus placebo, 5-11 hr. post fat load
[7] = rats, 5 hr. post dose, CB-1 antagonist 0.3 mg/kg

## O=C1CC[C@@]2(O)[C@H]3Cc4ccc(O)c5c4[C@@]2(CCN3CC2CC2)[C@H]1O5 [Naltrexone, naltrexone]
TRL V6
  Reduction in TRL V6 Response T1-(ie 2 hrs): 30%
  Reduction in TRL V6 Response T2-(ie 5 hrs): 0%
  Reduction in TRL V6 Response T3-(ie 18 hrs): 0%
TRL V6; rats, 10 mg/kg oral, 18 hr. post dose
  TRL V6 level at 18 hr. post dose (in words): unchanged
TRL V6; rats, 10 mg/kg orally administrated dose
  effect on circulating TRL V6 levels (in words): minimal effect
TRL V6; [2]
  reduction of circulating concentration of TRL V6: 30%
TRL V6; [3]
  time by which TRL V6 plasma concentration returns to baseline: 5 h

## CC(C)CC(N(C)C)C1(c2ccc(Cl)cc2)CCC1 (stereo not drawn) [Sibutramine, sibutramine]
[1]; AUC 5-11 hr. post fat load, mixed effects model, average of treated arms
  decrease in the TRL V6 response versus placebo: about 28%
[1]; [4]
  Geometric LS Mean of AUC, analyte TRL V5: 222.34
  Geometric LS Mean of AUC, analyte TRL V6: 119.35
  Geometric LS Mean of AUC, analytes TRL V6 + Chy: 205.0
  Geometric LS Mean of AUC, analytes TRL V6 + TRL V5: 364.08
  Geometric LS Mean of AUC, analytes TRL V6 + V5 + Chy: 458.04
  Sibutramine/Placebo Ratio of AUC, analyte TRL V5: 1.10
  Sibutramine/Placebo Ratio of AUC, analyte TRL V6: 0.73
  Sibutramine/Placebo Ratio of AUC, analytes TRL V6 + Chy: 0.81
  Sibutramine/Placebo Ratio of AUC, analytes TRL V6 + TRL V5: 0.88
  Sibutramine/Placebo Ratio of AUC, analytes TRL V6 + V5 + Chy: 0.89
[1]; [5]
  Geometric LS Mean of AUC, analyte Chy: 81.11
  Sibutramine/Placebo Ratio of AUC, analyte Chy: 0.98
[1]; [6]
  change in mean V-TRL response (in words): statistically significant decrease
  change in plasma concentrations of TRL V1, V2, V3, V4, or V5 subtypes (in words): does not show a significant change
TRL V6
  Reduction in TRL V6 Response T1-(ie 2 hrs): 78%
  Reduction in TRL V6 Response T2-(ie 5 hrs): 78%
  Reduction in TRL V6 Response T3-(ie 18 hrs): 0%
TRL V6; [2]
  reduction of circulating concentration of TRL V6: about 78%
TRL V6; rats, 2 hr. post dose
  reduction of circulating TRL V6 concentration: about 78%
TRL V6; [7]
  reduction of circulating TRL V6 concentration: about 78%
  reduction of circulating concentration of TRL V6: about 78%
TRL V6; [3]
  time by which TRL V6 plasma concentration returns to baseline: about 18 hr
